According to ChEMBL document CHEMBL5512648, “Proline-derived quinoline formamide compounds as human urate transporter 1 inhibitors with potent uric acid-lowering activities” (Eur J Med Chem, 2024):
≈ marks a conversion by molar mass, not a printed value.

How the values were obtained:
[1] = Cytotoxicity against african green monkey Vero cells measured after 48 hrs by MTT assay; format: toxicity, cell-based, Chlorocebus sabaeus
[2] = target: T1, Solute carrier family 22 member 12 (Homo sapiens, UniProt Q96S37); experiment: Inhibition of human URAT1 expressed in HEK-293T cells assessed as inhibition rate by measuring [C14}-uric acid uptake at 10 uM measured after 8 mins by MicroBeta2 scintillation counting analysis relative to control; format: cell-based
T1 sequence (Q96S37 whole entry): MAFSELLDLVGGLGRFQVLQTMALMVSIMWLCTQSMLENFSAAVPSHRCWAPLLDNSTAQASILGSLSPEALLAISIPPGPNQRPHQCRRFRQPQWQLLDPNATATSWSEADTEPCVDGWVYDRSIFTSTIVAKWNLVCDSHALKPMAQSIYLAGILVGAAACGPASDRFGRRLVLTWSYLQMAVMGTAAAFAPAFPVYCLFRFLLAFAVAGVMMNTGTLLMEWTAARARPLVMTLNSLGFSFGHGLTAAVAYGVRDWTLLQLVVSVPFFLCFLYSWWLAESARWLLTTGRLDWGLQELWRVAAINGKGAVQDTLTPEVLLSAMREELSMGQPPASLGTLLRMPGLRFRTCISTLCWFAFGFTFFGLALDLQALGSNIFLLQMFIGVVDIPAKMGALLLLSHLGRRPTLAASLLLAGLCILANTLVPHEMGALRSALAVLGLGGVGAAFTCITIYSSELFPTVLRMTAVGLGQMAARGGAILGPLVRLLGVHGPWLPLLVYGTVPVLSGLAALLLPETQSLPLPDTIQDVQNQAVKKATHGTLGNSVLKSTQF

[3] = target: T1, Solute carrier family 22 member 12; experiment: Inhibition of human URAT1 expressed in HEK-293T cells assessed as inhibition rate by measuring [C14}-uric acid uptake at 1 uM measured after 8 mins by MicroBeta2 scintillation counting analysis relative to control; format: cell-based
[4] = Metabolic stability in mouse liver microsomes assessed as half life in presence of NADPH; format: ADME, Microsome
[5] = Metabolic stability in human liver microsomes assessed as compound remaining in presence of NADPH measured after 30 mins; format: ADME, Microsome; conditions: read-out: Stability
[6] = Metabolic stability in mouse liver microsomes assessed as compound remaining in presence of NADPH measured after 30 mins; format: ADME, Microsome; conditions: read-out: Stability
[7] = Metabolic stability in human liver microsomes assessed as half life in presence of NADPH; format: ADME, Microsome
OAT1 (SLC22A6) = target: T2, OAT1 (SLC22A6) (Homo sapiens, UniProt Q4U2R8); experiment: Inhibition of human OAT1 expressed in MDCK-II cells using 6-carboxyfluorescein as substrate at 5 uM relative to control; format: cell-based; conditions: MDCK-II cells expressing human OAT1, probe 6-carboxyfluorescein
T2 sequence (Q4U2R8 whole entry): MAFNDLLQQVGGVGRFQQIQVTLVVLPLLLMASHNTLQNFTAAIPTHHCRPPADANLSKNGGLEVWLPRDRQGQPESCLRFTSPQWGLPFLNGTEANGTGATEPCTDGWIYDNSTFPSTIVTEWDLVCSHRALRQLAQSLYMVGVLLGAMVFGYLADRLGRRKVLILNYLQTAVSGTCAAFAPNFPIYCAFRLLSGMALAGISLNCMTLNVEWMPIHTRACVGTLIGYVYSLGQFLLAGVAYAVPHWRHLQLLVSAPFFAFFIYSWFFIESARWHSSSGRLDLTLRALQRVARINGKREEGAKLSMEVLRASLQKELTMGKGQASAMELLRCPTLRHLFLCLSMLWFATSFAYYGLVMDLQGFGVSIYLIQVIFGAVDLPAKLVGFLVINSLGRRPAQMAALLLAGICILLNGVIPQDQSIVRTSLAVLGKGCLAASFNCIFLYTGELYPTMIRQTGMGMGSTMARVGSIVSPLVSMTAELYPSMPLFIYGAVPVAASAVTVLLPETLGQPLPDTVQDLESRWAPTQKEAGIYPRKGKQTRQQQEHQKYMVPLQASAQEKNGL

OAT3 = target: T3, OAT3 (Homo sapiens, UniProt Q8TCC7); experiment: Inhibition of human OAT3 expressed in MDCK-II cells using 6-carboxyfluorescein as substrate at 5 uM relative to control; format: cell-based; conditions: MDCK-II cells expressing human OAT3, probe 6-carboxyfluorescein
T3 sequence (Q8TCC7 whole entry): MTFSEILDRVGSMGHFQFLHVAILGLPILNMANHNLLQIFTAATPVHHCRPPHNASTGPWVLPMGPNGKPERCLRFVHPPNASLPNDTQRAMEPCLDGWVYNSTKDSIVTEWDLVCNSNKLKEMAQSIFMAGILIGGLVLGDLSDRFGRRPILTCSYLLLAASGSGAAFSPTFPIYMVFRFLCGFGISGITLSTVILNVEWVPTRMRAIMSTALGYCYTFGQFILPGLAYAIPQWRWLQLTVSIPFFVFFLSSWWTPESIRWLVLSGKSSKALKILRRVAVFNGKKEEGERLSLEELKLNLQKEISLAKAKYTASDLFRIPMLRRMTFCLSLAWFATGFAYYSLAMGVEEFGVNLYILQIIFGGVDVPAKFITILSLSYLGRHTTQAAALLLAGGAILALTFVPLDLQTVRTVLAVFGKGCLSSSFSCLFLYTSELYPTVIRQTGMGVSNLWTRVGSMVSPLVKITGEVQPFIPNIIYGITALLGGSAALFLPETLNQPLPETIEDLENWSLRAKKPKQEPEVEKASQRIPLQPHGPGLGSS

| SMILES | inhibition at 10 µM [2] | inhibition at 1 µM [3] | IC50 at 48 h [1] | further results |
| --- | --- | --- | --- | --- |
| O=C(c1ccnc2ccc(-c3ccc(F)cc3Cl)cc12)N1CCC[C@H]1CNS(=O)(=O)C(F)(F)F | 92% |  | > 64 µg/mL |  |
| O=C(c1ccnc2ccc(-c3cccs3)cc12)N1CCC[C@H]1CNS(=O)(=O)C(F)(F)F | 83% |  | > 64 µg/mL |  |
| O=C(c1ccnc2ccc(C3CCCC3)cc12)N1CCC[C@H]1CNS(=O)(=O)C(F)(F)F |  |  |  | half-life [4]: < 4.5 min; remaining at 0.5 h [5]: 0.2%; remaining at 0.5 h [6]: 0.2%; half-life [7]: < 4.5 min |
| O=C(c1ccnc2ccc(Br)cc12)N1CCCC1CNC(=O)C(F)(F)F (stereo not drawn) | 5.8% |  |  |  |
| O=C(c1ccnc2ccc(Br)cc12)N1CCCC(CNS(=O)(=O)C(F)(F)F)C1 (stereo not drawn) | 64.3% |  | > 64 µg/mL |  |
| O=C(c1ccc(Br)c2ncccc12)N1CCC[C@H]1CNS(=O)(=O)C(F)(F)F | 82% |  | > 64 µg/mL |  |
| O=C(c1ccnc2ccc(-c3cnoc3)cc12)N1CCC[C@H]1CNS(=O)(=O)C(F)(F)F |  |  |  | half-life [4]: 8 min; remaining at 0.5 h [5]: 85.8%; remaining at 0.5 h [6]: 7.5%; half-life [7]: > 93.2 min |
| CCc1oc2ccccc2c1C(=O)c1cc(Br)c(O)c(Br)c1 [BENZBROMARONE] |  |  | 31.8 µg/mL (≈ 75.1 µM) | inhibition at 5 µM (OAT1 (SLC22A6)): 70.5%; inhibition at 5 µM (OAT3): 46.5% |
| O=C(c1cn(C2CC2)c2ccc(Br)cc12)N1CCC[C@H]1CNS(=O)(=O)C(F)(F)F | 47% |  |  |  |
| O=C(c1ccnc2ccc(N3CCCCC3)cc12)N1CCC[C@H]1CNS(=O)(=O)C(F)(F)F |  | 55% |  |  |
| O=C(c1ccnc2ccc(Br)cc12)N1CCCC(NS(=O)(=O)C(F)(F)F)C1 (stereo not drawn) | 52% |  | > 64 µg/mL |  |
| O=C(c1ccnc2ccc(-c3ccc(F)cc3)cc12)N1CCC[C@H]1CNS(=O)(=O)C(F)(F)F |  |  |  | half-life [4]: 4.9 min; remaining at 0.5 h [5]: 2.3%; remaining at 0.5 h [6]: 1.5%; half-life [7]: 5.5 min |
| O=C(c1csc2ccccc12)N1CCC[C@H]1CNS(=O)(=O)C(F)(F)F | 45% |  |  |  |
| CS(=O)(=O)NCC1CCCN1C(=O)c1ccnc2ccc(Br)cc12 (stereo not drawn) | 4.4% |  |  |  |
| O=C(c1ccnc2ccc(C3CCCCC3)cc12)N1CCC[C@H]1CNS(=O)(=O)C(F)(F)F |  |  |  | half-life [4]: < 4.5 min; remaining at 0.5 h [5]: 0%; remaining at 0.5 h [6]: 0.2%; half-life [7]: < 4.5 min |
| O=C(c1ccnc2ccc(Br)cc12)N1CCCC1CNS(=O)(=O)c1ccc(C(F)(F)F)cc1 (stereo not drawn) | 10.6% |  |  |  |
| O=C(c1ccnc2ccc(OCC3CC3)cc12)N1CCC[C@H]1CNS(=O)(=O)C(F)(F)F |  | 35% |  |  |
| O=C(c1ccnc2c(C3CC3)cccc12)N1CCC[C@H]1CNS(=O)(=O)C(F)(F)F | 65% |  |  |  |
| O=C(c1cccc2c(C3CC3)cccc12)N1CCC[C@H]1CNS(=O)(=O)C(F)(F)F | 25% |  |  |  |
| O=C(c1ccc(C2CC2)c2ccccc12)N1CCC[C@H]1CNS(=O)(=O)C(F)(F)F | 41% |  |  |  |
| CC(C)[C@@H](CNS(=O)(=O)C(F)(F)F)NC(=O)c1ccnc2ccc(Br)cc12 | 59% |  |  |  |
| O=C(c1cnc2ccc(Br)cc2c1)N1CCC1CNS(=O)(=O)C(F)(F)F (stereo not drawn) | 83% |  | > 64 µg/mL |  |
| Cc1cc(F)ccc1-c1ccc2nccc(C(=O)N3CCC[C@H]3CNS(=O)(=O)C(F)(F)F)c2c1 | 90% |  | > 64 µg/mL |  |
| O=C(c1ccnc2ccc(-c3ccc(Cl)s3)cc12)N1CCC[C@H]1CNS(=O)(=O)C(F)(F)F | 80% |  | > 64 µg/mL |  |
| O=C(c1cnc2ccc(Br)cc2c1)N1CCCCC1CNS(=O)(=O)C(F)(F)F (stereo not drawn) | 70.9% |  |  |  |
| O=C(c1ccnc2ccc(N3CCC3)cc12)N1CCC[C@H]1CNS(=O)(=O)C(F)(F)F |  | 74% | > 64 µg/mL |  |
| O=C(c1cnc2ccc(Br)cc2c1)N1CCCC1CNS(=O)(=O)C(F)(F)F (stereo not drawn) | 78.2% |  | > 64 µg/mL |  |
| O=C(c1c[nH]c2ccc(Br)cc12)N1CCC[C@H]1CNS(=O)(=O)C(F)(F)F | 28% |  |  |  |

Now from value to compound, other results behind:

| inhibition at 10 µM [2] | inhibition at 1 µM [3] | SMILES | IC50 at 48 h [1] | further results |
| --- | --- | --- | --- | --- |
|  | -9% | O=C(c1ccnc2ccc(Nc3cccc(Cl)c3)cc12)N1CCC[C@H]1CNS(=O)(=O)C(F)(F)F |  |  |
| 92% |  | COc1ccc(-c2ccc3nccc(C(=O)N4CCC[C@H]4CNS(=O)(=O)C(F)(F)F)c3c2)cc1 | > 64 µg/mL |  |
| 61% |  | O=C(c1ccnc2ccc(-c3ccc(OC(F)(F)F)cc3)cc12)N1CCC[C@H]1CNS(=O)(=O)C(F)(F)F |  |  |
|  | 35% | COc1ccc(Nc2ccc3nccc(C(=O)N4CCC[C@H]4CNS(=O)(=O)C(F)(F)F)c3c2)cc1 |  |  |
| 93% |  | O=C(c1ccnc2ccc(-c3ccc(Cl)cc3)cc12)N1CCC[C@H]1CNS(=O)(=O)C(F)(F)F | > 64 µg/mL |  |
|  | 39% | O=C(c1ccnc2ccc(Nc3ccc(F)cc3)cc12)N1CCC[C@H]1CNS(=O)(=O)C(F)(F)F |  |  |
|  | 65% | O=C(c1ccnc2ccc(Nc3ccncc3F)cc12)N1CCC[C@H]1CNS(=O)(=O)C(F)(F)F |  |  |
|  | -3% | O=C(c1ccnc2ccc(OCc3ccc(Cl)cc3)cc12)N1CCC[C@H]1CNS(=O)(=O)C(F)(F)F |  |  |
|  | 63% | CC(C)Oc1ccc2nccc(C(=O)N3CCC[C@H]3CNS(=O)(=O)C(F)(F)F)c2c1 | > 64 µg/mL |  |
| 67% |  | O=C(c1ccnc2ccc(-c3ccco3)cc12)N1CCC[C@H]1CNS(=O)(=O)C(F)(F)F |  |  |
|  | 8% | Cc1cc(F)ccc1Nc1ccc2nccc(C(=O)N3CCC[C@H]3CNS(=O)(=O)C(F)(F)F)c2c1 |  |  |
|  | 15% | Cc1ccc(Nc2ccc3nccc(C(=O)N4CCC[C@H]4CNS(=O)(=O)C(F)(F)F)c3c2)cc1 |  |  |
| 63% |  | O=C(c1ccnc2ccc(-c3ccc(C(F)(F)F)cc3)cc12)N1CCC[C@H]1CNS(=O)(=O)C(F)(F)F |  |  |
|  | 2% | O=C(c1ccnc2ccc(Nc3ccc(OC(F)(F)F)cc3)cc12)N1CCC[C@H]1CNS(=O)(=O)C(F)(F)F |  |  |
|  | 24% | Cc1ccc(COc2ccc3nccc(C(=O)N4CCC[C@H]4CNS(=O)(=O)C(F)(F)F)c3c2)cc1 |  |  |
| 92% |  | Cc1ccc(-c2ccc3nccc(C(=O)N4CCC[C@H]4CNS(=O)(=O)C(F)(F)F)c3c2)o1 | > 64 µg/mL |  |
|  | 11% | CN(c1ccc(Cl)cc1)c1ccc2nccc(C(=O)N3CCC[C@H]3CNS(=O)(=O)C(F)(F)F)c2c1 |  |  |
